According to PMC11875395, “Phenolic metabolism in Sarcandra glabra is mediated by distinct BAHD hydroxycinnamoyltransferases” (The Plant Journal, 2025):
Blank lines part the entries; values can stand above or below the molecule they belong to.

How the values were obtained:
Test in all cases: HPLC product formation, Michaelis-Menten
Type in all cases: biochemical, Sarcandra glabra
[1] = system: T1, SgHQT2; details: 0.1 M potassium phosphate, exact conditions in Table S14
T1 construct: full length (5'-RACE), 441 residues, 48847 Da
From the text: HPLC product formation, Michaelis-Menten on SgHQT2

[2] = system: T2, SgHQT1; details: 0.1 M potassium phosphate, exact conditions in Table S13
T2 construct: full length, 427 residues, 47772 Da
From the text: HPLC product formation, Michaelis-Menten on SgHQT1

[3] = system: T3, SgRAS; details: 0.1 M potassium phosphate, exact conditions in Table S15
T3 construct: full length, 449 residues, 49348 Da
From the text: HPLC product formation, Michaelis-Menten on SgRAS

[4] = system: T4, SgHST; details: 0.1 M potassium phosphate, exact conditions in Table S12
T4 construct: full length, 436 residues, 48424 Da
From the text: HPLC product formation, Michaelis-Menten on SgHST

[5] = with 4-hydroxyphenyllactic acid (pHPL)

SMILES: CC(C)(COP(=O)(O)OP(=O)(O)OC[C@H]1O[C@@H](n2cnc3c(N)ncnc32)[C@H](O)[C@@H]1OP(=O)(O)O)[C@@H](O)C(=O)NCCC(=O)NCCSC(=O)/C=C/c1ccc(O)c(O)c1 [Caffeoyl‐CoA]
Km ([1]; with quinic acid): 213 ± 53.5 µM | Km ([2]; with quinic acid): 9.3 ± 2.5 µM | Km [3, 5]: 57.2 ± 15.7 µM | Km ([4]; with shikimic acid): 21.4 ± 6.8 µM

SMILES: O=C(O)C(O)Cc1ccc(O)cc1 (stereo not shown) [4‐hydroxyphenyllactic acid]
Km ([3]; with p-coumaroyl-CoA): 544 ± 47.4 µM

SMILES: O=C(O)[C@H](O)Cc1ccc(O)c(O)c1
Km ([3]; with p-coumaroyl-CoA): 867 ± 105 µM

SMILES: O=C(O)[C@]1(O)C[C@@H](O)[C@@H](O)[C@H](O)C1 [Quinic acid]
Km ([1]; with p-coumaroyl-CoA): 11100 ± 1560 µM | Km ([2]; with p-coumaroyl-CoA): 5520 ± 713 µM | K m (μM) ([4]; with p-coumaroyl-CoA): 16 740.0 ± 1833.0 μM

SMILES: CC(C)(COP(=O)(O)OP(=O)(O)OC[C@H]1O[C@@H](n2cnc3c(N)ncnc32)[C@H](O)[C@@H]1OP(=O)(O)O)[C@@H](O)C(=O)NCCC(=O)NCCSC(=O)/C=C/c1ccc(O)cc1 [p‐Coumaroyl‐CoA]
Km ([1]; with quinic acid): 82.3 ± 14.8 µM | Km ([2]; with quinic acid): 19.9 ± 3.4 µM | Km [3, 5]: 14.6 ± 1.7 µM | Km ([4]; with shikimic acid): 17.4 ± 4.9 µM

SMILES: O=C(O)C1=C[C@@H](O)[C@@H](O)[C@H](O)C1 [Shikimic acid]
K m (μM) ([2]; with p-coumaroyl-CoA, n = 3 ± SD): 85 440.0 ± 18 700.0 μM | Km ([4]; with p-coumaroyl-CoA): 1220 ± 153 µM

Km ([4]; with p-coumaroyl-CoA): 238 ± 19.6 µM
SMILES: Nc1c(O)cccc1C(=O)O [3‐Hydroxyanthranilic acid, 2‐amino‐3‐hydroxybenzoic]
